One test concerns PC-3 prostate cancer cells. The test is described as follows: MTT assay of PC-3 prostate cancer cell growth (proliferation) inhibition. The test is classed as cell-based, human. The settings on record: Homo sapiens, 144 h, PC-3 cells, 6 days of treatment, read-out: GI50 Values (concentrations that cause 50% growth inhibition). The protocol: Data are means (SEM<±5%) of at least three independent experiments.
Compounds VNLG/145, VNLG/146, VNLG/147, VNLG/148, VNLG/152 and VNLG/153 were tested and evaluated for their ability to inhibit the growth (proliferation) of PC-3 prostate cancer cells using the MTT [3-(4,5-dimethylthiazol-2-yl)-2,5-diphenyltetrazolium bromide] assay (Gediyal et al. 2005). VN/66-1 of U.S. Pat. No. 7,265,143 was tested side by side for comparison. The GI50 values (concentrations that cause 50% growth inhibition) were determined from dose-response curves. See in FIG. 1 for VNLG/145.
The growth inhibitory experiments with the other compounds gave plots that were similar to FIG. 1.
(In general: Tetrazolium assays rely on reduction of a dye to a coloured formazan, in cell work by metabolically active cells.)
On to `CC1=C(/C=C/C(C)=C/C=C/C(C)=C/C(=O)NC(C)(C)C)C(C)(C)CCC1n1ccnc1` (stereo not drawn) [drawing 35], for which the GI50 turned out to be 1860 ± 50 nM.

Take `CC1=C(/C=C/C(C)=C/C=C/C(C)=C/C(=O)Nc2cc(C(F)(F)F)ccc2C(F)(F)F)C(C)(C)CCC1n1ccnc1` (stereo not drawn): the GI50 is 14100 ± 7120 nM.

With `CC1=C(/C=C/C(C)=C/C=C/C(C)=C/C(=O)Nc2ccccc2O)C(C)(C)CCC1n1ccnc1` (stereo not drawn) [drawing 37], the GI50 was found to be 1700 ± 70 nM.

As to `CC1=C(/C=C/C(C)=C/C=C/C(C)=C/C(=O)Nc2ccc(F)cc2)C(C)(C)CCC1n1ccnc1` (stereo not drawn) [drawing 39], the GI50 stood at 610 ± 110 nM.

`CC1=C(/C=C/C(C)=C/C=C/C(C)=C/C(=O)Nc2ccc(O)cc2)C(C)(C)CCC1n1ccnc1` (stereo not drawn): the GI50 came out at 1700 ± 50 nM.

Take `CC1=C(/C=C/C(C)=C/C=C/C(C)=C/C(=O)Nc2ccccc2)C(C)(C)CCC1n1ccnc1` (stereo not drawn) [drawing 40]: the GI50 stood at 1170 ± 50 nM.

Consider `CC1=C(/C=C/C(C)=C/C=C/C(C)=C/C(=O)Nc2ncnc3[nH]cnc23)C(C)(C)CCC1n1ccnc1` (stereo not drawn), for which the GI50 came to 5620 ± 370 nM.

Staying with this test, now noted: PC-3 cells, side by side with VN/66-1.
As to `CC1=C(/C=C/C(C)=C/C=C/C(C)=C/C(=O)Nc2ccccc2O)C(C)(C)CCC1n1ccnc1` (stereo not drawn) [VNLG/147], the “potency (growth inhibition) compared with VN/66-1” value is reported as “potencies similar to VN/66-1”.

`CC1=C(/C=C/C(C)=C/C=C/C(C)=C/C(=O)Nc2ccccc2)C(C)(C)CCC1n1ccnc1` (stereo not drawn) [VNLG/153]: the “potency (growth inhibition) compared with VN/66-1” value is “potencies better than VN/66-1”.

With `CC1=C(/C=C/C(C)=C/C=C/C(C)=C/C(=O)NC(C)(C)C)C(C)(C)CCC1n1ccnc1` (stereo not drawn) [VNLG/145], the “potency (growth inhibition) compared with VN/66-1” value is given as “potencies similar to VN/66-1”.

`CC1=C(/C=C/C(C)=C/C=C/C(C)=C/C(=O)Nc2ccc(F)cc2)C(C)(C)CCC1n1ccnc1` (stereo not drawn) [VNLG/152]: the “potency (growth inhibition) compared with VN/66-1” value is given as “potencies better than VN/66-1”.

For another test, the system named is RARα,β,γ receptors.
Assay: not given
The settings on record: compared with ATRA; cited from earlier work.
For `CC1=C(/C=C/C(C)=C/C=C/C(C)=C/C(=O)O)C(C)(C)CCC1n1ccnc1` (stereo not drawn) [VN/14-1], the “binding and activation of RARα,β,γ receptors” value is “binds and activates the RARα,β,γ receptors, albeit it is significantly less potent than ATRA”.

The record behind these values is patent US9156792B2, “Retinamide and uses thereof” (UNIVERSITY OF MARYLAND, BALTIMORE, priority 2008, dated 2015).
